According to US20080280999A1, “Process for Making Pharmaceutical Compositions with a Transient Plasticizer” (NOVARTIS AG, priority 2005, published 2008):
In brackets after ≈: the same amount, converted by molar mass.

Experiment: Solubility in water
Type: physicochemical
Procedure: As used herein, the term “poorly water-soluble” or “poorly soluble” refers to having a solubility in water at 20° C. of less than 1%, i.e., a “sparingly soluble to practically insoluble, or insoluble drug” as described in Remington, The Science and Practice of Pharmacy, 21st Edition, p. 212, D. B. Troy, Ed., Lippincott Williams & Wilkins (2005).

| solubility in water (in words) | solubility [µg/mL] | SMILES |
| --- | --- | --- |
| insoluble in water | – | CC[C@@H]1/C=C(\C)C[C@H](C)C[C@H](OC)[C@H]2O[C@@](O)(C(=O)C(=O)N3CCCC[C@H]3C(=O)O[C@H](/C(C)=C/[C@@H]3CC[C@H](Cl)[C@H](OC)C3)[C@H](C)[C@@H](O)CC1=O)[C@H](C)C[C@@H]2OC [Pimecrolimus] |
| – | 10 (≈ 17.4 µM) | CN(Cc1ccccc1)C(=O)[C@H](Cc1ccc2ccccc2c1)N(C)C(=O)[C@@H]1CCCN1c1nc(=O)c2ccccc2[nH]1 |
